Results reported in ChEMBL document CHEMBL4715902, “Thiophene-Pyrazolourea Derivatives as Potent, Orally Bioavailable, and Isoform-Selective JNK3 Inhibitors” (ACS Med Chem Lett, 2021).
Calls of active or inactive are those of the source. The rule behind the calls is not given here.

Columns and labels:
[1] = system: SH-SY5Y; assay: Cytotoxicity against human SH-SY5Y cells assessed as cell viability at 10 uM after 48 hrs by MTT assay relative to control; type: cell-based
[2] = Metabolic stability in human liver microsomes assessed as half life; type: ADME, Microsome
[3] = Metabolic stability in mouse liver microsomes assessed as half life; type: ADME, Microsome
[4] = target: Mitogen-activated protein kinase 14 (Homo sapiens, UniProt Q16539); assay: Inhibition of P38alpha (unknown origin)
Chain of Mitogen-activated protein kinase 14 (Q16539 whole entry): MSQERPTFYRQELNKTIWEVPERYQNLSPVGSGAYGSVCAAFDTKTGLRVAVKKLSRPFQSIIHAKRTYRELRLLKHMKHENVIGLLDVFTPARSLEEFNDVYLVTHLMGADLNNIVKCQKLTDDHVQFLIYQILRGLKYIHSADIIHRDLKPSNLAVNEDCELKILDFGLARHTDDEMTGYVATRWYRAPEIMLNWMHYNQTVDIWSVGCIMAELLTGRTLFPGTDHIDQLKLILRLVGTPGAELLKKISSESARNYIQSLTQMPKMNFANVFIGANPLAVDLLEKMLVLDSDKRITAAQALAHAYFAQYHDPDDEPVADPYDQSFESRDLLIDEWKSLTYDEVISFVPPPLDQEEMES

[5] = Brain concentration in C57BL/6J mouse at 10 mg/kg, po measured after 1 hr by LC-MS/MS analysis; type: ADME, organism-based; conditions: read-out: Drug uptake
[6] = Plasma concentration in C57BL/6J mouse at 10 mg/kg, po measured after 1 hr by LC-MS/MS analysis; type: ADME, organism-based
[7] = target: Mitogen-activated protein kinase 10 (Rattus norvegicus) (UniProt P49187); assay: Inhibition of JNK3 in rat primary neuron assessed as reduction in phosphorylation of APP at T688 residue at 10 nM incubated for 30 mins by Western blot analysis; conditions: dose nM 10, time 30.0 min
Chain of Mitogen-activated protein kinase 10 (Rattus norvegicus) (P49187 whole entry): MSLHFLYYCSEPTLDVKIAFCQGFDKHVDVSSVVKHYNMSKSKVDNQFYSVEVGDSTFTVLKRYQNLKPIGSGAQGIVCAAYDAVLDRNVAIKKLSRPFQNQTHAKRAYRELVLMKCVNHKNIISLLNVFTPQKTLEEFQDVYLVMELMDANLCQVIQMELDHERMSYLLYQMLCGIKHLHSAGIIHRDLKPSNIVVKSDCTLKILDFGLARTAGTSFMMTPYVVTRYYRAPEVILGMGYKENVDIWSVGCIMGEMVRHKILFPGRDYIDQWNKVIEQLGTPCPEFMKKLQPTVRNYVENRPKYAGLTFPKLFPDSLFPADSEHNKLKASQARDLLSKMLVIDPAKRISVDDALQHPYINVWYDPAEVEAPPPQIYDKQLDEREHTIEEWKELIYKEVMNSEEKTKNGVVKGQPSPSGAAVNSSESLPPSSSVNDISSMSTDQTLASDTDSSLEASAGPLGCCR

SMILES | t1/2 [2] [min] | t1/2 [3] [min] | IC50 [4] [µM] | concentration at 1 h [5] [nM] | concentration at 1 h [6] [nM] | inhibition [7] | Activity [1] [%]
O=C(Nc1cnn(-c2csc(C(=O)NC3COC3)c2)c1)Nc1c(F)cccc1Cl | 100 | 72 | – | – | – | – | 102
O=C(Nc1cnn(-c2csc(C(=O)N[C@@H]3CCOC3)c2)c1)Nc1ccccc1Cl | 33 | 13 | > 20 | – | – | – | 112
O=C(Nc1cnn(-c2csc(C(=O)NC3CCOCC3)c2)c1)Nc1ccccc1Cl | – | 16 | – | – | – | – | 97
CC(C)N1CC[C@H](NC(=O)c2cc(-n3cc(NC(=O)Nc4ccccc4Cl)cn3)cs2)C1 | – | – | > 20 | – | – | – | –
Cc1sc(C(=O)NC2COC2)cc1-n1cc(NC(=O)Nc2c(F)cccc2Cl)cn1 | 110 | 57 | – | – | – | – | 111
O=C(Nc1cnn(-c2csc(C(=O)NC3COC3)c2)c1)Nc1ccccc1Cl | 66 | 24 | > 20 | 1080 | 960 | Active | 104
Cc1sc(C(=O)N[C@@H]2CCOC2)cc1-n1cc(NC(=O)Nc2c(F)cccc2Cl)cn1 | 40 | 38 | – | – | – | Active | 114
O=C(Nc1cnn(-c2csc(C(=O)NC3COC3)c2)c1)Nc1ccc(F)cc1Cl | > 120 | 68 | – | – | – | Active | 104
[2H]C([2H])([2H])N1CC[C@@H](NC(=O)c2cc(-n3cc(NC(=O)Nc4ccccc4Cl)cn3)cs2)C1 | – | – | > 20 | – | – | – | –
O=C(Nc1cnn(-c2cc(C(=O)NC3CNC3)cs2)c1)Nc1ccccc1Cl | – | – | > 20 | – | – | – | –

Continued, in another order:

t1/2 [2] [min] | t1/2 [3] [min] | IC50 [4] [µM] | concentration at 1 h [5] [nM] | concentration at 1 h [6] [nM] | inhibition [7] | SMILES | Activity [1] [%]
– | – | > 20 | – | – | – | CN1CCC[C@H]1CNC(=O)c1cc(-n2cc(NC(=O)Nc3ccccc3Cl)cn2)cs1 | –
– | – | > 20 | – | – | – | O=C(Nc1cnn(-c2csc(C(=O)N[C@@H]3CCNC3)c2)c1)Nc1ccccc1Cl | –
8 | 15 | – | – | – | – | O=C(Nc1cnn(-c2csc(C(=O)NCC3CCOCC3)c2)c1)Nc1ccccc1Cl | 95
– | – | > 20 | – | – | – | CN1CC[C@H](CNC(=O)c2cc(-n3cc(NC(=O)Nc4ccccc4Cl)cn3)cs2)C1 | –
54 | – | > 20 | – | – | – | CN1CC[C@H](NC(=O)c2cc(-n3cc(NC(=O)Nc4ccccc4Cl)cn3)cs2)C1 | 94
49 | 35 | – | – | – | – | O=C(Nc1cnn(-c2csc(C(=O)NC3CC3)c2)c1)Nc1ccccc1Cl | 103
– | – | > 20 | – | – | – | O=C(Nc1cnn(-c2csc(C(=O)NC[C@H]3CCOC3)c2)c1)Nc1ccccc1Cl | –
– | – | > 20 | – | – | – | CN1CC[C@@H](NC(=O)c2cc(-n3cc(NC(=O)Nc4ccccc4Cl)cn3)cs2)C1 | –
92 | 15 | – | – | – | – | CN1CCC(NC(=O)c2cc(-n3cc(NC(=O)Nc4ccccc4Cl)cn3)cs2)CC1 | 89
